Data from ChEMBL document CHEMBL1136505, “Myxovirescin analogues via macrocyclic ring-closing metathesis” (2003).
Calls of active or inactive are those of the source. The rule behind the calls is not given here.

What was measured:
Assay type in all cases: functional, organism-based
Fusobacterium mortiferum = assay: Antibacterial activity against Fusobacterium mortiferum (ATCC 63425) at a concentration of 200 ug/mL; not active
Pasteurella sp. [1] = assay: Antibacterial activity against Pasteurella sp.(ATCC 67777) at a concentration of 200 ug/mL; not active
Schaalia meyeri = assay: Antibacterial activity against Actinomyces meyeri (ATCC 61789) at a concentration of 200 ug/mL; Active
Prevotella buccae = assay: Antibacterial activity against Bacteroides buccae (ATCC 67792) at a concentration of 200 ug/mL; not active; settings: Segatella buccae
Propionibacterium = assay: Antibacterial activity against Propionibacterium sp.(ATCC 72661) at a concentration of 200 ug/mL; Active
Fusobacterium sp. = assay: Antibacterial activity against Fusobacterium sp.(ATCC 74714) at a concentration of 200 ug/mL; not active
Actinomyces sp. = assay: Antibacterial activity against Actinomyces sp.(ATCC 70710) at a concentration of 200 ug/mL; Active
Porphyromonas canoris [2] = assay: Antibacterial activity against Porphyromonas canoris (ATCC NCTC 12835) at a concentration of 200 ug/mL; Active
Escherichia coli = assay: Antibacterial activity against Escherichia coli (ATCC NCTC 6571) at a concentration of 200 ug/mL; not active
Pasteurella sp. [3] = assay: Antibacterial activity against Pasteurella sp.(ATCC 67535) at a concentration of 200 ug/mL; Active
[4] = test system: Pseudoflavonifractor capillosus; assay: Antibacterial activity against Bacteroides capillosus (ATCC 60802) at a concentration of 200 ug/mL; not active
Pasteurella multocida [5] = assay: Antibacterial activity against Pasteurella multocida (ATCC 63560) at a concentration of 200 ug/mL; not active
Porphyromonas gingivalis [6] = assay: Antibacterial activity against Porphyromonas gingivalis sp.(ATCC D23C) at a concentration of 200 ug/mL; Active
Pasteurella sp. [7] = assay: Antibacterial activity against Pasteurella sp.(ATCC 69527) at a concentration of 200 ug/mL; not active
Hoylesella oralis [8] = assay: Antibacterial activity against Bacteroides oralis (ATCC 72708) at a concentration of 200 ug/mL; Active
Pasteurella sp. [9] = assay: Antibacterial activity against Pasteurella sp.(ATCC 71886) at a concentration of 200 ug/mL; not active
Bacteroides ovatus [10] = assay: Antibacterial activity against Bacteroides ovatus (ATCC 66640) at a concentration of 200 ug/mL; Active
Corynebacterium sp. = assay: Antibacterial activity against Corynebacterium sp. (ATCC 68984) at a concentration of 200 ug/mL; Active
Prevotella bivia = assay: Antibacterial activity against Bacteroides bivus (ATCC 64362) at a concentration of 200 ug/mL; not active
Bacteroides uniformis = assay: Antibacterial activity against Bacteroides uniformis (ATCC 62723) at a concentration of 200 ug/mL; not active
Pasteurella multocida [11] = assay: Antibacterial activity against Pasteurella multocida (ATCC 61096) at a concentration of 200 ug/mL; not active
Staphylococcus aureus [12] = assay: Antibacterial activity against Staphylococcus aureus (ATCC NCTC 6571) at a concentration of 200 ug/mL; Active
Porphyromonas canoris [13] = assay: Antibacterial activity against Porphyromonas canoris (ATCC NCTC 12836) at a concentration of 200 ug/mL; Active
Bacteroides ovatus [14] = assay: Antibacterial activity against Bacteroides ovatus (ATCC 66640) at a concentration of 200 ug/mL; not active
Porphyromonas gingivalis [15] = assay: Antibacterial activity against Porphyromonas gingivalis sp.(ATCC D23C) at a concentration of 200 ug/mL
Staphylococcus aureus [16] = assay: Antibacterial activity against Staphylococcus aureus (ATCC NCTC 6571) at a concentration of 200 ug/mL; not active
Hoylesella oralis [17] = assay: Antibacterial activity against Bacteroides oralis (ATCC 72708) at a concentration of 200 ug/mL; not active

SMILES | Activity (Fusobacterium mortiferum) | Activity (Pasteurella sp. [1]) | Activity (Schaalia meyeri) | Activity (Prevotella buccae) | Activity (Propionibacterium) | Activity (Fusobacterium sp.) | Activity (Actinomyces sp.) | Activity (Porphyromonas canoris [2]) | Activity (Escherichia coli) | Activity (Pasteurella sp. [3]) | Activity [4] | Activity (Pasteurella multocida [5]) | Activity (Pasteurella sp. [7]) | Activity (Pasteurella sp. [9]) | Activity (Corynebacterium sp.) | Activity (Prevotella bivia) | Activity (Bacteroides uniformis) | Activity (Pasteurella multocida [11]) | Activity (Porphyromonas canoris [13]) | further results
CCC[C@H]1OC(=O)CCCCCCCCCCCCCC/C=C/C[C@H](O)[C@H](O)[C@@H](O)[C@H](O)[C@H](O)CNC1=O | inactive | inactive | Active | inactive | Active | inactive | Active | Active | inactive | Active | inactive | inactive | inactive | inactive | Active | inactive | inactive | inactive | Active | Activity (Porphyromonas gingivalis [6]): Active; Activity (Hoylesella oralis [8]): Active; Activity (Bacteroides ovatus [10]): Active; Activity (Staphylococcus aureus [12]): Active
CCC[C@@H]1OC(=O)CCCCCCCCCCCCCC/C=C(\C)CC[C@@H](O)[C@@H](O)C[C@H](O)CNC1=O | inactive | inactive | Active | inactive | Active | inactive | Active | Active | inactive | Active | inactive | inactive | inactive | inactive | Active | inactive | inactive | inactive | Active | Activity (Bacteroides ovatus [14]): inactive; Activity (Porphyromonas gingivalis [15]): inactive; Activity (Staphylococcus aureus [16]): inactive; Activity (Hoylesella oralis [17]): inactive
